Like-named read-outs stand apart in the source and are kept apart here. Where a SMILES comes first, the peptide text is derived from it. Where no end group is shown, it is not given here. [ ]: non-standard residue; d: D form. dOrn = NCCC[C@@H](N)C(=O)O; Orn = NCCC[C@H](N)C(=O)O
What was measured:
[1] = tested on: TNBS-induced colon inflammation; test: TNBS rat model of inflammatory bowel disease; assay type: in vivo
Description: Colon inflammation was induced by intra-rectal/colon administration of the hapten trinitrobenzene sulphonic acid (TNBS) on male Sprague-Dawley rats (175-200 g) (Bouma, Nature Rev, 2003; Morris, Gastroenterology, 1989). Animals were anesthetized with isoflurane and TNBS dissolved in 50% ethanol (vol/vol). 120 mg/ml (TNBS) was administered into the colon (total volume of 0.25 ml per rat) using a polyethylene tube (PE50). The cannula was inserted at 8 cm from the anus and kept in place for at least 15 minutes after TNBS administration in order to prevent expulsion of the solution. Two hours prior to TNBS administration, the API-101 derivative API-101.10 (1.1 mg/kg) or 0.9% saline was administered intravenously via the caudal vein (total volume of 0.3 ml). […] A third group (control) was not injected with TNBS. Six days after administration of TNBS, rats were killed by CO2 inhalation. Day 6 was chosen as an endpoint because by day 7 spontaneous tissue regeneration begins and this can mask the therapeutic effect of the tested peptide or peptide derivative. Colon was removed and examined macroscopically (adhesions, ulcerations, discoloration and bleeding) and histologically (neutrophil infiltration, epithelial injury, crypt distortion and ulcerations) (Anthony et al., Int. J. Exp. Path. 76:215-224, 1995; Padol et al., Eur. J. of Gastroenterol. Hepatol. 12:257-265, 2000; Dieleman et al., […], 1997; Torres et al., Digestive Diseases and Sciences 44:2523-2529, 1999). Two animals per group were studied.
Histological transversal sections were cut at 4-6 cm from the proximal anal region and colored with the hematoxylin/eosin method. The TNBS model of inflammatory bowel disease reproduces the inflammatory characteristics and tissue injuries of Crohn's disease (e.g., in humans). Morphologically, the colon of the animals injected with TNBS presented thickening, edema, and discoloration of the intestinal wall indicating a significant inflammation. […] Histological features consisted of neutrophil infiltration into the epithelial layer and crypts, epithelial lining injury as well as the loss of crypts. […] The organization and integrity of the crypts in the API-101.10-treated colon is conserved even if there is still some inflammation (half the dose of API-101.10 was used as compared to the macroscopic analysis experiment).
Colon inflammation was induced by intra-rectal/colon administration of the hapten trinitrobenzene sulphonic acid (TNBS) as described above. Two hours prior to TNBS administration, peptides, peptidomimetics or 0.9% saline were administered intravenously (iv) via the caudal vein (various concentrations of mg/kg/d) (total volume of 0.3 ml). […] A third group (control) was not injected with TNBS. For intermittent administration, fifteen minutes after TNBS administration, 101.10 (0.25-1 mg/kg), 101.107 (0.2 mg/kg), 101.113 (0.05-1 mg/kg) were administered by intermittent intraperitoneal injection (ip). Also, these IL-1R antagonists were given twice a day (BID); Remicade® (anti-TNFα) (10 mg/kg) and dexamethasone (0.75 mg/kg) were administered intraperitoneally but only once a day (qd). The intrarectal administration (ir) of 101.10, 101.113 (1 and 2.5 mg/kg), and 5-ASA (50 mg/kg) was done one hour after TNBS administration, and twice a day, except for 5-ASA which is once a day. Finally, 101.10 (1-5 mg/kg) was also administered orally by gavage (po), twice a day. Forty-eight hours after administration of TNBS, rats were killed by CO2 inhalation. The colon was removed and assessed macroscopically (adhesions, ulcerations, discoloration and bleeding) and histologically (neutrophil infiltration, epithelial injury, crypt distortion and ulcerations). One to seven animals per group were studied, according to treatments. Myeloperoxidase (MPO) activity was measured on tissue lysates.

[2] = target: T1, IL-1R/IL-1RacP (Homo sapiens, UniProt P14778+Q9NPH3); test: IL-1β-induced proliferation in TF-1 cells; assay type: cell-based; conditions: for activity relative to 101.113: Table 11
T1 construct: TF-1 cells; endogenous in cells; host or cells: TF-1
T1 sequence (P14778 18-569): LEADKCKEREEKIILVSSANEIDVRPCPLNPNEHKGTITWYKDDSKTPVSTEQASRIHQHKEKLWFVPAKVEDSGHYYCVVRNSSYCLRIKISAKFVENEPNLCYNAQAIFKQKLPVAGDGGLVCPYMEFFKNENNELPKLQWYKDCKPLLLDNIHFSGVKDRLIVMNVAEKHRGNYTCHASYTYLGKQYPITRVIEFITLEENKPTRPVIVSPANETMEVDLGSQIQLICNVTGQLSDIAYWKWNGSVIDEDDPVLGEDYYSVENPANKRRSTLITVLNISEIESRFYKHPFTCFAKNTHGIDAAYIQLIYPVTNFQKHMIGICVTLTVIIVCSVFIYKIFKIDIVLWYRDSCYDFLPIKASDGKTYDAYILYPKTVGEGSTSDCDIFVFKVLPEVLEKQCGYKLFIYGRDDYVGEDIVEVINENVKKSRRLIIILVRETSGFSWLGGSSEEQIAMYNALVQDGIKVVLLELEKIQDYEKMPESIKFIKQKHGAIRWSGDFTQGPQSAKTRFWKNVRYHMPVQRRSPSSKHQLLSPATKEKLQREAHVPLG
T1 sequence (Q9NPH3 21-570): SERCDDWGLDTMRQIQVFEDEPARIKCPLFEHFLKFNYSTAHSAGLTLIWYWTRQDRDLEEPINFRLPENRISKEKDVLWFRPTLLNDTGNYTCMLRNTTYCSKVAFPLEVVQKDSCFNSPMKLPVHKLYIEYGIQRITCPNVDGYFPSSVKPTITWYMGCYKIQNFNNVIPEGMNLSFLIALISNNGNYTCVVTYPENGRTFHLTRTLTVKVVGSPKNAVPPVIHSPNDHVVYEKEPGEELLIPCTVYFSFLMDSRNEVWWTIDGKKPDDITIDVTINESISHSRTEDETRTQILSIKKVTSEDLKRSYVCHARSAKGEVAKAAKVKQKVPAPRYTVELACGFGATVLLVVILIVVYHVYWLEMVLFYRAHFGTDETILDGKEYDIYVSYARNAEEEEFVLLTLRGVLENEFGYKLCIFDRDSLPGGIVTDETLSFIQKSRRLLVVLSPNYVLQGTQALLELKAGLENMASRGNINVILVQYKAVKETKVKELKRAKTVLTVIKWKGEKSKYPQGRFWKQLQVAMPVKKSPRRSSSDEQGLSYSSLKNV

[3] = target: IGF-1R (Homo sapiens, UniProt P08069); test: IGF-1 induced proliferation of MCF-7 breast carcinoma cells (3H-thymidine); assay type: cell-based; parameters: MCF-7 breast carcinoma cells; endogenous in cells; host or cells: MCF-7; conditions: MCF7; MCF-7 (breast cancer) cells; Table 5; read-out: Emax
IGF-1R, sequence (P08069 31-736 limits assumed): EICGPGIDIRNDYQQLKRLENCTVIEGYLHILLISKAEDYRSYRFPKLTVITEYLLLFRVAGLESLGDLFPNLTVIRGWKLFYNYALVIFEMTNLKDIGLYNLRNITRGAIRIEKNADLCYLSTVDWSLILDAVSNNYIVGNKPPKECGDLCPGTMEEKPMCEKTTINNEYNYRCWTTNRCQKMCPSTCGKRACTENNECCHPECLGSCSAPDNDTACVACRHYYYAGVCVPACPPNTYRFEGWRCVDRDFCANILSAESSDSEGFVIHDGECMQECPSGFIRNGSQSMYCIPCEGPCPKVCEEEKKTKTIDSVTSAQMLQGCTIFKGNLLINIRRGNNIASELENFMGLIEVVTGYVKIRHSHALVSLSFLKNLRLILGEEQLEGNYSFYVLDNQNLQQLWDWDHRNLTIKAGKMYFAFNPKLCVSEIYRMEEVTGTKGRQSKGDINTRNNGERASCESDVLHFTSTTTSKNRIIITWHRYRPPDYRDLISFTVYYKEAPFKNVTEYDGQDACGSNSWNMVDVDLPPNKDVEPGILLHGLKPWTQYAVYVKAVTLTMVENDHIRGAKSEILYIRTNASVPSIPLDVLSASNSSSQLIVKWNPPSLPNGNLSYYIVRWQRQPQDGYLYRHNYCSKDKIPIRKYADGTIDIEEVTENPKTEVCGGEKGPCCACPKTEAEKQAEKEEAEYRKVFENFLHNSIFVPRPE
IGF-1R, sequence (P08069 741-1367 limits assumed): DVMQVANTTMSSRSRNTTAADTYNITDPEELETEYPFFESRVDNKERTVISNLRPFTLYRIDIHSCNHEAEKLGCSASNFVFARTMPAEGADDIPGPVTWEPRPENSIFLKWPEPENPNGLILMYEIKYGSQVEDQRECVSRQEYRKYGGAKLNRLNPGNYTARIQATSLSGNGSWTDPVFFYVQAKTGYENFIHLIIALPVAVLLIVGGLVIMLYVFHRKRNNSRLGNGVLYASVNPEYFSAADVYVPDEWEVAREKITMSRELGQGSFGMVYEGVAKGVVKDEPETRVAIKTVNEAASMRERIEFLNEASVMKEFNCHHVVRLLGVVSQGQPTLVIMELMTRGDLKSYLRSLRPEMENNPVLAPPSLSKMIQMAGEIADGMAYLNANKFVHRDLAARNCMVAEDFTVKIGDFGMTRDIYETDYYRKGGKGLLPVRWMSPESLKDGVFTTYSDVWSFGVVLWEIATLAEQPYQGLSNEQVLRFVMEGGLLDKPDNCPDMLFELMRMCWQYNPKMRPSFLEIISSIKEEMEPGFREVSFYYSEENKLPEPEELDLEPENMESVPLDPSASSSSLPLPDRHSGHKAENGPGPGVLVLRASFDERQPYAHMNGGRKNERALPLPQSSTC
Description: We also tested the effect IGF-1R antagonist peptides on IGF-1 induced proliferation in other cancer cell types (MCF-7 breast carcinoma cells, HepG2 hepatocarcinoma cells, and MDA-MB-231 breast adenocarcinoma cells). Different cancer cells were pre-incubated (45 min.) with different concentrations of peptides prior to stimulation with IGF-1 (50 ng/ml) (37° C.) for 24 hours; fetal calf serum was omitted 24 hours prior to stimulation with IGF-1 to avoid proliferative effects by other mitotic agents. ^3H-thymidine (1 μCi/ml) was then added for 24 hours, after which cells were washed three times with 5% cold TCA and lysed with 0.1N NaOH/0.1% Triton X-100. Radioactivity was measured with a scintillation counter. Experiments were repeated 3 times in duplicates (FIG. 15). […]

[4] = intermittent injection (ip), 0.75-qd mg/kg/d
[5] = TF-1, Table 11, read-out: Emax (%), IL-1β-induced TF-1 proliferation
[6] = TF-1, IL-1β-induced, Table 10, read-out: Emax (%), proliferation in TF-1 cells (human)
[7] = continuous infusion (ip), 8.0 mg/kg/d
[8] = intermittent injection (ip), 10.0-qd mg/kg/d
[9] = intrarectal administration, 50.0-qd mg/kg/d

In the case of `C[C@@H]1C[C@H]2[C@@H]3CCC4=CC(=O)C=C[C@]4(C)[C@@]3(F)[C@@H](O)C[C@]2(C)[C@@]1(O)C(=O)CO` [Dexamethasone, dexamethasone, reference compound], the “Histologic evaluation (median score)” value [1, 4] is reported as 3 (Medium ulcer (5-10 crypts)), the “MPO (% of TNBS + Saline)” value [1, 4] is reported as 60 % of TNBS + Saline and the “Macroscopic evaluation (median score)” value [1, 4] is reported as 0.87 median score.
Compound RFVPELA [API-101.127, RFVPELA] has an Emax [2, 5] of under 30%.
For `CC(C)C[C@@H](NC(=O)[C@@H](CCC(=O)O)NC(=O)[C@H]1CCCN1C(=O)[C@H](NC(=O)[C@@H](Cc1ccc(O)cc1)NC(=O)[C@H](N)CCCNC(N)=O)[C@H](C)O)C(=O)O` [API-101.134, XYTPEL (X = Citrulline)], the Emax [2, 5] was 10% and the “activity relative to 101.113” value [2] was “little or no activity”.
In the case of `CC(C)C[C@@H](NC(=O)[C@@H](CCC(=O)O)NC(=O)[C@H]1CCCN1C(=O)[C@H](NC(=O)[C@@H](Cc1ccccc1)NC(=O)[C@H](N)CCCNC(=N)N)[C@H](C)O)C(=O)O` [API-101.132, RFTPEL] (H-[dR][dF][dT][dP][dE][dL]-OH; N-terminus and C-terminus assumed), the Emax [2, 5] is reported as 35% and the “activity relative to 101.113” value [2] is reported as “relatively decreased”.
RTVLSNL [APG-206.8, RTVLSNL] gave an Emax [3] of 100%.
Compound `CC(C)C[C@@H](NC(=O)[C@@H](CCC(=O)O)NC(=O)[C@H]1CCCN1C(=O)[C@H](NC(=O)[C@@H](Cc1ccc(O)cc1)NC(=O)[C@H](N)CCCNC(=N)N)[C@H](C)O)C(=O)O` [API-101.113, RYTPEL] has an Emax [2, 6] of 100%.
`CC(C)C[C@H](NC(=O)[C@H](CCC(=O)O)NC(=O)[C@@H]1CCCN1C(=O)[C@@H](NC(=O)[C@H](Cc1ccc(O)cc1)NC(=O)[C@@H](N)CCCN)[C@@H](C)O)C(=O)O` [API-101.126, XYTPEL (X = Ornithine)] (H-[Orn]YTPEL-OH) was tested, and the Emax [2, 5] was 0%.
For “Kineret: Amgen drug, a selective blocker of IL-1; commercial analog of IL-1R antagonist (IL-Ra) [reference compound]”, the “Histologic evaluation (median score)” value [1, 7] was 2 (Small ulcer (<5 crypts)) and the “MPO (% of TNBS + Saline)” value [1, 7] was 63 % of TNBS + Saline.
For “Remicade ®: anti-TNFα [reference compound]”, the “Histologic evaluation (median score)” value [1, 8] was 2.5 median score, the “MPO (% of TNBS + Saline)” value [1, 8] was 88 ± 41 % of TNBS + Saline and the “Macroscopic evaluation (median score)” value [1, 8] was 0.5 median score.
With `Nc1ccc(O)c(C(=O)O)c1` [Peptide 5-ASA, 5-ASA, reference compound] the “Histologic evaluation (median score)” value [1, 9] was 3.3 median score, the “MPO (% of TNBS + Saline)” value [1, 9] was 49 % of TNBS + Saline and the “Macroscopic evaluation (median score)” value [1, 9] was 1.5 median score.
KYTPEL [API-101.133, KYTPEL] showed an Emax [2, 5] of under 10%.
For `CC(C)C[C@@H](NC(=O)[C@@H](CCC(=O)O)NC(=O)[C@H]1CCCN1C(=O)[C@H](NC(=O)[C@@H](Cc1c[nH]c2ccccc12)NC(=O)[C@H](N)CCCNC(=N)N)[C@H](C)O)C(=O)N[C@H](C)C(=O)O` [API-101.116, RWTPELA], the Emax [2, 6] was 75%.
`CC(C)C[C@@H](NC(=O)[C@@H](CCC(=O)O)NC(=O)[C@H]1CCCN1C(=O)[C@H](NC(=O)[C@@H](Cc1c[nH]c2ccccc12)NC(=O)[C@H](N)CCCNC(=N)N)[C@H](C)O)C(=O)O` [API-101.128, RWTPEL] (H-[dR][dW][dT][dP][dE][dL]-OH; N-terminus and C-terminus assumed) was tested, and the Emax [2, 5] was 100% and the “activity relative to 101.113” value [2] was “relatively decreased”.
`CC(C)C[C@@H](NC(=O)[C@@H](CCC(=O)O)NC(=O)[C@H]1CCCN1C(=O)[C@H](NC(=O)[C@@H](Cc1ccc(O)cc1)NC(=O)[C@H](N)CCCN)[C@H](C)O)C(=O)N[C@H](C)C(=O)O` [API-101.115, XYTPELA (X = Ornithine)] (H-[dOrn][dY][dT][dP][dE][dL][dA]-OH) was tested, and the Emax [2, 6] was 100%.
Work on `CC(C)C[C@@H](NC(=O)[C@@H](CCC(=O)O)NC(=O)[C@H]1CCCN1C(=O)[C@H](NC(=O)[C@@H](Cc1ccc(O)cc1)NC(=O)[C@@H](N)CCCNC(=N)N)[C@H](C)O)C(=O)O` [API-101.135, *RYTPEL] yielded an Emax [2, 5] of 63%.

Source: US20110144014A1, “CYTOKINE RECEPTOR MODULATORS AND USES THEREOF” (CENTRE HOSPITALIER UNIVERSITAIRE SAINTE-JUSTINE, priority 2005, published 2011)
